Like-named read-outs stand apart in the source and are kept apart here.
Legend:
[1] = tested on: influenza A virus A/Aichi/2/68 (H3N2); test: Cytopathic effect (CPE) assay H3N2; type: cell-based, influenza A virus (H3N2) on MDCK cells; details: for inhibition at 50 µM: H3N2, activity conc 50 (μM per method); for inhibition at 1 µM: H3N2, activity conc 1 (μM per method)
Experimental: A possible measure of the […] antiviral activity of the compounds having the formula I or II is the CPE assay disclosed herein. […] In this connection, the reduction in the virus-mediated cytopathic effect (CPE) upon treatment with the compounds was calculated as follows: The cell viability of infected-treated and uninfected-treated cells was determined using an ATP-based cell viability assay (Promega). The response in relative luminescent units (RLU) of infected-untreated samples was subtracted from the response (RLU) of the infected-treated samples and then normalized to the viability of the corresponding uninfected sample resulting in % CPE reduction.
The influenza A virus (IAV) was obtained from American Tissue Culture Collection (A/Aichi/2/68 (H3N2); VR-547). Virus stocks were prepared by propagation of virus on Mardin-Darby canine kidney (MDCK; ATCC CCL-34) cells and infectious titres of virus stocks were determined by the 50% tissue culture infective dose (TCID50) analysis as described in Reed, L. J., and H. Muench. 1938, Am. J. Hyg. 27:493-497.
MDCK cells were seeded in 96-well plates at 2×10^4 cells/well using DMEM/Ham's F-12 (1:1) medium containing 10% foetal bovine serum (FBS), 2 mM L-glutamine and 1 antibiotics (all from PAA). Until infection the cells were incubated for 5 hrs at 37° C., 5.0 CO2 to form a ˜80% confluent monolayer on the bottom of the well. Each test compound was dissolved in DMSO and generally tested at 25 μM and 250 μM. In those cases where the compounds were not soluble at that concentration they were tested at the highest soluble concentration. The compounds were diluted in infection medium (DMEM/Ham's F-12 (1:1) containing 5 μg/ml trypsin, and 1% antibiotics) for a final plate well DMSO concentration of 1%. The virus stock was diluted in infection medium (DMEM/Ham's F-12 (1:1) containing 5 μg/ml Trypsin, 1% DMSO, and 1% antibiotics) to a theoretical multiplicity of infection (MOI) of 0.05.
After removal of the culture medium and one washing step with PBS, virus and compound were added together to the cells. In the wells used for cytotoxicity determination (i.e. in the absence of viral infection), no virus suspension was added. Instead, infection medium was added. Each treatment was conducted in two replicates. After incubation at 37° C., 5% CO2 for 48 hrs, each well was observed microscopically for apparent cytotoxicity, precipitate formation, or other notable abnormalities. Then, cell viability was determined using CellTiter-Glo luminescent cell viability assay (Promega). The supernatant was removed carefully and 65 μl of the reconstituted reagent were added to each well and incubated with gentle shaking for 15 min at room temperature. Then, 60 μl of the solution was transferred to an opaque plate and luminescence (RLU) was measured using Synergy HT plate reader (Biotek).
Relative cell viability values of uninfected-treated versus uninfected-untreated cells were used to evaluate cytotoxicity of the compounds. Substances with a relative viability below 80% at the tested concentration were regarded as cytotoxic and retested at lower concentrations.
Reduction in the virus-mediated cytopathic effect (CPE) upon treatment with the compounds was calculated as follows: The response (RLU) of infected-untreated samples was subtracted from the response (RLU) of the infected-treated samples and then normalized to the viability of the corresponding uninfected sample resulting in % CPE reduction.

[2] = Influenza A virus, read-out: CPE H3N2 reduction (%)
[3] = Influenza A virus, H3N2, activity conc 5 (μM per method), read-out: CPE H3N2 reduction (%)

Structure (SMILES) | melting point | further results
Cc1c(-c2ccc(Cl)c(C#N)c2)sc2nc(N)[nH]c(=O)c12 | > 360 °C | 
Cc1c(-c2ccccc2)sc2nc(NCCN3CCOCC3)[nH]c(=O)c12 | 240 to 246 °C | 
CN(C)CCNC(=O)c1cccc(-c2ccnc(C(=O)N(O)Cc3ccccc3)c2)c1 | 65 to 70 °C | 
Cc1c(Cc2ccccc2)sc2nc(N)[nH]c(=O)c12 | 292 to 294 °C | 
NC(=O)c1ccc(-c2ccnc(C(=O)N(O)Cc3ccccc3)c2)cc1 | 155 to 160 °C | 
CCONC(=O)c1cc(N2CCOCC2)ccn1.Cl (hydrate or solvate) | 200 to 202 °C | 
O=C(NO)c1cc(N2CCOCC2)ccn1 | 215 to 220 °C (dec.) | 
Cc1c(-c2cccc(C#N)c2)sc2nc(N)[nH]c(=O)c12 | > 350 °C | 
Cc1c(-c2ccccc2)sc2nc(NCCO)[nH]c(=O)c12 | 227 to 229 °C | 
O=C(c1cc(NS(=O)(=O)c2ccccc2)ccn1)N(O)Cc1ccccc1 | 175 to 180 °C | 
Cl.O=C(c1cc(NS(=O)(=O)Cc2cccc(F)c2)ccn1)N(O)Cc1ccccc1 | 111 to 113 °C | 
O=C(c1ccc(-c2ccccc2)cn1)N(O)Cc1ccccc1 | 145 to 150 °C | 
Cc1c(-c2ccccc2)sc2nc(N)[nH]c(=O)c12 | 356 to 358 °C | 
CCONC(=O)c1cc(N)ccn1.Cl (hydrate or solvate) | 114 to 120 °C | 
Cl.O=C(NO)c1cc(NS(=O)(=O)Cc2cccc(F)c2)ccn1 | 195 to 200 °C | 
CN1CC=C(c2ccnc(C(=O)N(O)Cc3ccccc3)c2)CC1 | 135 to 155 °C | 
O=C(c1cc(C2=CC3CCC(C2)N3)ccn1)N(O)Cc1ccccc1 (stereo not shown) | 95 to 100 °C | 
Cl.O=C(c1cc(NS(=O)(=O)Cc2cccc(Cl)c2)ccn1)N(O)Cc1ccccc1 | 115 to 125 °C | 
Cc1c(-c2ccc(Cl)c(C(F)(F)F)c2)sc2nc(N)[nH]c(=O)c12 | > 350 °C | 

Structure (SMILES) | melting point | further results
Cl.O=C(c1cc(N2CCOCC2)ccn1)N(O)Cc1ccccc1 | 185 to 190 °C | 
C[C@@H]1CN(c2ccnc(C(=O)N(O)Cc3ccccc3)c2)C[C@H](C)O1 | 180 to 185 °C | 
Cc1cccc(C(=O)NOCc2ccccc2)n1 | 75 to 80 °C | 
CN1CC=C(c2ccnc(C(=O)N(O)Cc3ccccc3)c2)CC1 [drawing 260] |  | inhibition at 50 µM [1, 2]: 10.6%
O=C(c1cc(-c2ccccc2)ccn1)N(O)Cc1ccc(F)cc1 [drawing 223] |  | inhibition at 1 µM [1, 2]: -3.2%
Cl.O=C(NO)c1cc(NS(=O)(=O)Cc2cccc(Cl)c2)ccn1 [drawing 267] |  | CPE H3N2 reduction (%) ([1]; activity conc 50 (μM per method)): 5.9%
CON(C)C(=O)c1ccc2ccccc2n1 |  | inhibition at 50 µM [1, 2]: -1.2%
O=C(c1ccc(-c2ccccc2)cn1)N(O)Cc1ccccc1 [drawing 215] |  | inhibition at 12 µM ([1]; Influenza A virus, H3N2, activity conc 12 (μM per method), read-out: CPE H3N2 reduction (%)): 13.4%
Cc1c(-c2ccccc2)sc2nc(Nc3ccccc3)[nH]c(=O)c12 [SAV-7638] |  | inhibition at 5 µM ([1]; Influenza A virus, H3N2, read-out: CPE H3N2 reduction (%), activity conc 5 (μM per method)): 8.7%
CCONC(=O)c1cc(NCCCc2cccc(Cl)c2)ccn1 [drawing 168] |  | inhibition at 1 µM [1, 2]: -0.3%
CCONC(=O)c1ccc2ccccc2n1 |  | inhibition at 50 µM [1, 2]: -2.2%
O=C(c1cc(-c2cccc(CO)c2)ccn1)N(O)Cc1ccccc1 [drawing 240] |  | inhibition at 5 µM [1, 3]: 7.7%
CNC(=O)c1cccc(-c2ccnc(C(=O)N(O)Cc3ccccc3)c2)c1 |  | inhibition at 5 µM [1, 3]: -7.5%
Nc1ccccc1NC(=O)c1ccc(C(=O)NO)nc1 |  | inhibition at 50 µM [1, 2]: -5.53%
O=C(c1cc(-c2ccc(Cl)cc2)ccn1)N(O)Cc1ccccc1 [drawing 219] |  | inhibition at 2 µM ([1]; Influenza A virus, H3N2, activity conc 2 (μM per method), read-out: CPE H3N2 reduction (%)): -6.7%
CC(C)(C)OC(=O)N1CCC(c2ccnc(C(=O)N(O)Cc3ccccc3)c2)CC1 |  | inhibition at 20 µM ([1]; Influenza A virus, H3N2, activity conc 20 (μM per method), read-out: CPE H3N2 reduction (%)): 31.3%
NC(=O)c1ccc(-c2ccnc(C(=O)N(O)Cc3ccccc3)c2)cc1 [drawing 232] |  | inhibition at 5 µM [1, 3]: -2.5%
O=C(c1cc2ccccc2cn1)N(O)Cc1ccccc1 [drawing 200] |  | inhibition at 50 µM [1, 2]: 34.2%
